Usually IC50 stands for the concentration at which inhibition is half-maximal.

The values that follow come from US8748421B2, “Triazine compounds as P13 kinase and MTOR inhibitors” (Wyeth LLC, priority 2009, dated 2014).

Experiment [1] has as its target human SMG-1 (hSMG-1) (Homo sapiens, UniProt Q96Q15). The experiment in a line: hSMG-1 kinase assay (DELFIA). Type of experiment: biochemical.
The subject of experiment [2] is human prostate LNCap tumor cell line. The experiment in a line: In vitro cell culture growth assay (MTS), LNCap. The following applies: 72 h, read-out: IC50 LNCap.
The test system of experiment [3] is human prostate PC3-mm2 tumor cell line. The experiment in a line: In vitro cell culture growth assay (MTS), PC3-mm2. Type of experiment: cell-based. The note with it: PC3MM2, 72 h, human prostate PC3-mm2 cells, three days after drug treatment.
The subject of experiment [4] is human breast MDA-MB-361 tumor cell line. Kind of experiment: In vitro cell culture growth assay (MTS), MDA-MB-361. The class given is cell-based. The following applies: 72 h, human breast MDA-MB-361 cells, three days after drug treatment.
Experiment [5] addresses PI3K-alpha (Homo sapiens, UniProt P42336). The experiment in a line: PI3K-alpha fluorescence polarization assay. The following applies: read-out: IC50 PI3Kα.
Experiment [6] deals with PI3K-gamma (Homo sapiens, UniProt P48736). The experiment in a line: PI3K-gamma fluorescence polarization assay. The following applies: read-out: IC50 PI3Kγ. A general note: Polarisation of emitted light reports the rotation of a fluorescent probe.
Chain of PI3K-gamma (P48736 whole entry, species assumed): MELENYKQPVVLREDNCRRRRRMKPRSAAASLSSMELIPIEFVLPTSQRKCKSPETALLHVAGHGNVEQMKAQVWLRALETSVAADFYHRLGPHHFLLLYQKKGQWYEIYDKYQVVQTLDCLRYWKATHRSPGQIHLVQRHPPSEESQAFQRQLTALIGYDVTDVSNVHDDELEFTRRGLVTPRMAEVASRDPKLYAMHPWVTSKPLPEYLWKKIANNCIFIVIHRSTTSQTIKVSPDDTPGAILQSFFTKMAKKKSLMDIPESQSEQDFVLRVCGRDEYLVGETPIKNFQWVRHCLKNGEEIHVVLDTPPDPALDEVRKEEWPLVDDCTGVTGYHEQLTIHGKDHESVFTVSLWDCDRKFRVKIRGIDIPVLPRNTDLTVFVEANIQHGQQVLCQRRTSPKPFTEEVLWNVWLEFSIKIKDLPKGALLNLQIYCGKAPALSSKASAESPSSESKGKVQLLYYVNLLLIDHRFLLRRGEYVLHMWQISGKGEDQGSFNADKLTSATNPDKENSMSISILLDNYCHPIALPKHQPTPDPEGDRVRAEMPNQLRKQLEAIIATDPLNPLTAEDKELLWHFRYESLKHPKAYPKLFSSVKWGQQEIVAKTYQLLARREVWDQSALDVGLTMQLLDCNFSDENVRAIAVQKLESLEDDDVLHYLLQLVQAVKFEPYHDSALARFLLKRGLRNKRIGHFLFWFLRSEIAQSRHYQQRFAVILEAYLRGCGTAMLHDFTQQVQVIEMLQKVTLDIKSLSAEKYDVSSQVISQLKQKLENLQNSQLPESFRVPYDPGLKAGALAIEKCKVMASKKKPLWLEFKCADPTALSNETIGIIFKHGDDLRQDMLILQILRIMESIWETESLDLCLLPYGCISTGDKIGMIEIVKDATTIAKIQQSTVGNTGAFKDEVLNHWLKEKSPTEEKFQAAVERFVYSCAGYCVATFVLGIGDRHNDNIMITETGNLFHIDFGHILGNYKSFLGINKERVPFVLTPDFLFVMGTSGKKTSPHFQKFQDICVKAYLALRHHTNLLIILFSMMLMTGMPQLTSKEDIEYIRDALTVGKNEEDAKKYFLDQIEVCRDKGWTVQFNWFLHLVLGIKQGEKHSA
The subject of experiment [7] is acute lymphoblastic leukemia xenograft. The note with it: NOS/SCID mouse; cited from earlier work.
The subject of experiment [8] is human tumor xenograft models. The note with it: chronic oral administration, 400 mg/kg; A549, PC-3, WiDr; cited from earlier work.

Chain of PI3K-alpha (P42336 whole entry, species assumed): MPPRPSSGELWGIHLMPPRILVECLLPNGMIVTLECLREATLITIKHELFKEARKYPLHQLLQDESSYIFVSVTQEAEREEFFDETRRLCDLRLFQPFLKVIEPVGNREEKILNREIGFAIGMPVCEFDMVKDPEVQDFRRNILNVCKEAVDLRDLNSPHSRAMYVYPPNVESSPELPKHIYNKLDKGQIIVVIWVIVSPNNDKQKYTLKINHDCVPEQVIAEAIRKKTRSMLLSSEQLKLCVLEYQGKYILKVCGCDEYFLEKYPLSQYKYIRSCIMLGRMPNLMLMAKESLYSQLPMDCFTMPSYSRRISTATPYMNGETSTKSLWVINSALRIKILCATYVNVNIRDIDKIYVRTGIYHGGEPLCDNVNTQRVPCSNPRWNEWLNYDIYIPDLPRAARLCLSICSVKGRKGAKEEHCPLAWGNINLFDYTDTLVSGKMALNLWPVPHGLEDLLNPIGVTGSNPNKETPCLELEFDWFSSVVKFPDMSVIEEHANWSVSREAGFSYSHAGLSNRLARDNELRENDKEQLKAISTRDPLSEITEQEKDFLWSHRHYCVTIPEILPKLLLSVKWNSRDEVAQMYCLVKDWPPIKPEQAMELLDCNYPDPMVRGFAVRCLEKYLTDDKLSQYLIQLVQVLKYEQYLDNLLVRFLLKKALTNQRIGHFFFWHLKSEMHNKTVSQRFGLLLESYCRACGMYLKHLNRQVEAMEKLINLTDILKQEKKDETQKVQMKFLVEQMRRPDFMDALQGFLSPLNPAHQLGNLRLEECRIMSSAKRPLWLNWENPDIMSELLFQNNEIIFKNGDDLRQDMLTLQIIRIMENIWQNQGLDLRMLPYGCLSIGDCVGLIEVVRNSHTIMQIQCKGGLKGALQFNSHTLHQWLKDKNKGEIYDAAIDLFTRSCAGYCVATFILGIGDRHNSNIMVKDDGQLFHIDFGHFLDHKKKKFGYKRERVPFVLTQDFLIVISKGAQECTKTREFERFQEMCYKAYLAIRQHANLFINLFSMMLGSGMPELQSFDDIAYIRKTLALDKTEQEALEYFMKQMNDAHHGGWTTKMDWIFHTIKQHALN
Chain of PI3K-alpha (P27986 whole entry partner, species assumed): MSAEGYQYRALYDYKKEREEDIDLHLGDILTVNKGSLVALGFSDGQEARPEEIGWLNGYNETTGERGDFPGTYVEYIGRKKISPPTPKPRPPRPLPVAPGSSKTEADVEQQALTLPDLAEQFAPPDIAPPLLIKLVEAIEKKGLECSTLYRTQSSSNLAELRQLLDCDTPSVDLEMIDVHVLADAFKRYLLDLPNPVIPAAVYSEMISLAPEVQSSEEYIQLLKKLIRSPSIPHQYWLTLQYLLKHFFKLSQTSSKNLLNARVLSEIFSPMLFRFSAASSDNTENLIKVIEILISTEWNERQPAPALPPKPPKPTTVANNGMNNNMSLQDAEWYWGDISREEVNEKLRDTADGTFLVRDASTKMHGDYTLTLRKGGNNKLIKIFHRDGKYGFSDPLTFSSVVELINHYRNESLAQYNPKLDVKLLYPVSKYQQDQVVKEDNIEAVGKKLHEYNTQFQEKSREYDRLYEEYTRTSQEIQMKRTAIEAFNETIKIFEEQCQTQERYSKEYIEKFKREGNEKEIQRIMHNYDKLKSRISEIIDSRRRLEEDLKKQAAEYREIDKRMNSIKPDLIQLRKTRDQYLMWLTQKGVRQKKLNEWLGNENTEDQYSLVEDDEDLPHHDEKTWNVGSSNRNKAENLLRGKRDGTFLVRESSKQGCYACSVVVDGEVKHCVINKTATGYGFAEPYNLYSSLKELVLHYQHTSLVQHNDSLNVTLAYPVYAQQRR

On to `CNC(=O)Nc1ccc(-c2nc(-c3ccc(NC(=O)Nc4ccc(C(N)=O)cc4)cc3)nc(N3CCOCC3)n2)cc1` [Example 462, 4-({[4-(4-{4-[(methylcarbamoyl)amino]phenyl}-6-morpholin-4-yl-1,3,5-triazin-2-yl)phenyl]carbamoyl}amino)benzamide], for which the IC50 in experiment [1] was 1 nM. Consider `CNC(=O)Nc1ccc(-c2nc(-c3ccc(NC(=O)Nc4cccc(C(N)=O)c4)cc3)nc(N3CCOCC3)n2)cc1` [Example 466, 3-({[4-(4-{4-[(methylcarbamoyl)amino]phenyl}-6-morpholin-4-yl-1,3,5-triazin-2-yl)phenyl]carbamoyl}amino)benzamide], for which the half-maximal inhibitory concentration (IC50) in experiment [2] came out at 420 nM. Regarding `CN(C)CCNC(=O)c1ccc(NC(=O)Nc2ccc(-c3nc(N4CCCCC4)nc(N4CCOCC4)n3)cc2)cc1` [Example 601, N-[2-(dimethylamino)ethyl]-4-({[4-(4-morpholin-4-yl-6-piperidin-1-yl-1,3,5-triazin-2-yl)phenyl]carbamoyl}amino)benzamide], the half-inhibitory concentration (IC50) is 155 nM in experiment [3] and 22 nM in experiment [4]. Consider `CN(C)[C@@H]1CCN(C(=O)c2ccc(NC(=O)Nc3ccc(-c4nc(C5CCOCC5)nc(N5CCOCC5)n4)cc3)cc2)C1` [Example 868, 1-(4-{[(3R)-3-(dimethylamino)pyrrolidin-1-yl]carbonyl}phenyl)-3-{4-[4-morpholin-4-yl-6-(tetrahydro-2H-pyran-4-yl)-1,3,5-triazin-2-yl]phenyl}urea], for which the IC50 is 0.65 nM in experiment [5] and 4.5 nM in experiment [6]. Consider `CN(C)[C@H]1CCN(C(=O)c2ccc(NC(=O)Nc3ccc(-c4nc(C5CCOCC5)nc(N5CCOCC5)n4)cc3)cc2)C1` [Example 869, 1-(4-{[(3S)-3-(dimethylamino)pyrrolidin-1-yl]carbonyl}phenyl)-3-{4-[4-morpholin-4-yl-6-(tetrahydro-2H-pyran-4-yl)-1,3,5-triazin-2-yl]phenyl}urea], for which the values for the IC50 in experiment [5] and in experiment [6] were 0.6 nM and 6.5 nM, respectively.

For `CO[C@H]1C[C@@H]2CC[C@@H](C)[C@@](O)(O2)C(=O)C(=O)N2CCCC[C@H]2C(=O)O[C@H]([C@H](C)C[C@@H]2CC[C@@H](OC(=O)C(C)(CO)CO)[C@H](OC)C2)CC(=O)[C@H](C)/C=C(\C)[C@@H](O)[C@@H](OC)C(=O)[C@H](C)C[C@H](C)/C=C/C=C/C=C/1C` [Torisel], the “activity in xenograft mouse model of acute lymphoblastic leukemia” value in experiment [7] was “active”. In the case of `FC(F)c1nc2ccccc2n1-c1nc(N2CCOCC2)nc(N2CCOCC2)n1` [ZSTK474, 2-(2-difluoromethylbenzoimidazol-1-yl)-4,6-dimorpholino-1,3,5-triazine], the “tumor growth inhibition in mouse human xenograft cancer models” value in experiment [8] is “completely inhibited growth”.
